One assay has as its system HL60 tumor cells. The assay can be described thus: AlamarBlue conversion cell proliferation assay, HL60 cell line. Format: cell-based. The protocol:
(§1) The in vitro anti-proliferative activity of compounds of formula (I), metformin and combinations thereof is tested in an AlamarBlue conversion cell proliferation assay (Promega) on HL60 tumor cells and the mouse mast cell line 6.5 (Colombi et al., Oncogene 2011, 30:1551-65). Cells are seeded into 96-well microtiter plates (seeding cell density is 7,000 cells per well in 150 uL Iscove's medium) and test compounds are added (compounds of formula (I) are added from a 10 mM stock solution in DMSO, metformin from a freshly prepared 1 M solution in culture medium). Plates are incubated for 3 days at 37°, 5% CO2 and proliferation is determined by AlamarBlue staining (0.1 vol % added to cultures and incubated for further 4-5 hours). The conversion of AlamarBlue is proportional to live cell number and is read with a fluorescence plate reader (Ex/Em 535/595 nm). Growth is normalized to the untreated controls.
Background: Resazurin is reduced to fluorescent resorufin, in cell work by metabolically active cells.

Another assay concerns mouse mast cell line 6.5. Description: AlamarBlue conversion cell proliferation assay, 6.5 cell line. The assay is classed as cell-based. On the procedure: as §1
Where [1] appears, read: combined with 4 mM metformin, 3 days incubation, read-out: concentration that inhibits the proliferation of cells by approximately 50% when combined with 4 mM metformin, HL60 cell line.
Setting [2] is: combined with 4 mM metformin, 3 days incubation, read-out: concentration that inhibits the proliferation of cells by approximately 50% when combined with 4 mM metformin, 6.5 cell line.
Setting [3] is: read-out: concentration that inhibits the proliferation of cells by approximately 50% when combined with 4 mM metformin, HL60 cell line, 3 days incubation.
[4] abbreviates: read-out: concentration that inhibits the proliferation of cells by approximately 50% when combined with 4 mM metformin, 6.5 cell line, 3 days incubation.

Read-outs that look alike come from different tables or passages of the source.

Results on 17 molecules are retold here after patent US9511064B2, “Combination therapy for the treatment of cancer and immunosuppression” (Basilea Pharmaceutica AG, priority 2012, dated 2016).

As to `COC(=O)[C@H]1[C@H]2C[C@@H]3c4[nH]c5cc(OC)ccc5c4CCN3C[C@H]2C[C@@H](OC(=O)c2cc(OC)c(OC(=O)OCc3cccnc3)c(OC)c2)[C@@H]1OC` [Example 7, methyl (1R,15S,17R,18R,19S,20S)-17-[(3,5-dimethoxy-4-{[(pyridin-3-ylmethoxy)carbonyl]oxy}phenyl)carbonyloxy]-6,18-dimethoxy-3,13-diazapentacyclo[11.8.0.0^2,10.0^4,9.0^15,20]henicosa-2(10),4,6,8-tetraene-19-carboxylate], the IC50 worked out at 2000 nM in the assay on HL60 tumor cells (setting [1]) and 2500 nM in the assay on mouse mast cell line 6.5 (setting [2]).
Turning to `COC(=O)[C@H]1[C@H]2C[C@@H]3c4[nH]c5cc(OC)ccc5c4CCN3C[C@H]2C[C@@H](OC(=O)c2cc(OC)c(OC(=O)Cc3ccccc3)c(OC)c2)[C@@H]1OC` [Example 20, methyl (1R,15S,17R,18R,19S,20S)-17-({3,5-dimethoxy-4-[(2-phenylacetyl)oxy]phenyl}carbonyloxy)-6,18-dimethoxy-3,13-diazapentacyclo[11.8.0.0^2,10.0^4,9.0^15,20]henicosa-2(10),4,6,8-tetraene-19-carboxylate], the IC50 in the assay on HL60 tumor cells (setting [3]) and in the assay on mouse mast cell line 6.5 (setting [4]) was 5000 nM throughout.
Consider `CCOC(=O)Oc1c(OC)cc(C(=O)O[C@@H]2C[C@@H]3CN4CCc5c([nH]c6cc(OC(=O)OC(C)(C)C)ccc56)[C@H]4C[C@@H]3[C@H](C(=O)OC)[C@H]2OC)cc1OC` [Example 12, methyl (1R,15S,17R,18R,19S,20S)-6-{[(tert-butoxy)carbonyl]oxy}-17-({4-[(ethoxycarbonyl)oxy]-3,5-dimethoxyphenyl}carbonyloxy)-18-methoxy-3,13-diazapentacyclo[11.8.0.0^2,10.0^4,9.0^15,20]henicosa-2(10),4,6,8-tetraene-19-carboxylate], for which the IC50 in the assay with HL60 tumor cells (setting [3]) and in the assay on mouse mast cell line 6.5 (setting [4]) was 1500 nM throughout.
Regarding `CCOC(=O)Oc1c(OC)cc(C(=O)O[C@@H]2C[C@@H]3CN4CCc5c([nH]c6cc(OC(=O)CN)ccc56)[C@H]4C[C@@H]3[C@H](C(=O)OC)[C@H]2OC)cc1OC` [Example 16, methyl (1R,15S,17R,18R,19S,20S)-6-[(2-aminoacetyl)oxy]-17-({4-[(ethoxycarbonyl)oxy]-3,5-dimethoxyphenyl}carbonyloxy)-18-methoxy-3,13-diazapentacyclo[11.8.0.0^2,10.0^4,9.0^15,20]henicosa-2(10),4,6,8-tetraene-19-carboxylate], the IC50 came to 2000 nM in the assay with HL60 tumor cells (setting [3]) and 1000 nM in the assay with mouse mast cell line 6.5 (setting [4]).
On to `COC(=O)[C@H]1[C@H]2C[C@@H]3c4[nH]c5cc(OC)ccc5c4CCN3C[C@H]2C[C@@H](OC(=O)c2cc(OC)c(OC(=O)OCc3cccc4ccccc34)c(OC)c2)[C@@H]1OC` [Example 34], for which the IC50 in the assay with HL60 tumor cells (setting [1]) turned out to be 5000 nM; with mouse mast cell line 6.5 (setting [2]), 7500 nM.
The matching figures for `COC(=O)[C@H]1[C@H]2C[C@@H]3c4[nH]c5cc(OC)ccc5c4CCN3C[C@H]2C[C@@H](OC(=O)c2cc(OC)c(OC(=O)OCc3ccc(F)cc3)c(OC)c2)[C@@H]1OC` [Example 36]: 3000 nM and 2500 nM.
In the case of `COC(=O)[C@H]1[C@H]2C[C@@H]3c4[nH]c5cc(OC)ccc5c4CCN3C[C@H]2C[C@@H](OC(=O)c2cc(OC)c(OC(=O)OCc3cc(Cl)cc(Cl)c3)c(OC)c2)[C@@H]1OC` [Example 10, methyl (1R,15S,17R,18R,19S,20S)-17-{[4-({[(3,5-dichlorophenyl)methoxy]carbonyl}oxy)-3,5-dimethoxyphenyl]carbonyloxy}-6,18-dimethoxy-3,13-diazapentacyclo[11.8.0.0^2,10.0^4,9.0^15,20]henicosa-2(10),4,6,8-tetraene-19-carboxylate], the IC50 with HL60 tumor cells (setting [1]) and in the assay on mouse mast cell line 6.5 (setting [2]) was 1000 nM throughout.
Take `COC(=O)[C@H]1[C@H]2C[C@@H]3c4[nH]c5cc(OC)ccc5c4CCN3C[C@H]2C[C@@H](OC(=O)c2cc(OC)c(OC(=O)OCc3cccc(Br)c3)c(OC)c2)[C@@H]1OC` [Example 31]: the IC50 with HL60 tumor cells (setting [1]) and with mouse mast cell line 6.5 (setting [2]) was 2000 nM throughout.
In the case of `CCOC(=O)Oc1c(OC)cc(C(=O)O[C@@H]2C[C@@H]3CN4CCc5c([nH]c6cc(O)ccc56)[C@H]4C[C@@H]3[C@H](C(=O)OC)[C@H]2OC)cc1OC` [Example 13, methyl (1R,15S,17R,18R,19S,20S)-17-({4-[(ethoxycarbonyl)oxy]-3,5-dimethoxyphenyl}carbonyloxy)-6-hydroxy-18-methoxy-3,13-diazapentacyclo[11.8.0.0^2,10.0^4,9.0^15,20]henicosa-2(10),4,6,8-tetraene-19-carboxylate], the IC50 is 2000 nM with HL60 tumor cells (setting [1]) and 1000 nM in the assay with mouse mast cell line 6.5 (setting [2]).
As to `COC(=O)[C@H]1[C@H]2C[C@@H]3c4[nH]c5cc(OC)ccc5c4CCN3C[C@H]2C[C@@H](OC(=O)c2cc(OC)c(OC(=O)OCc3cc(OC)cc(OC)c3)c(OC)c2)[C@@H]1OC` [Example 8, methyl (1R,15S,17R,18R,19S,20S)-17-{[4-({[(3,5-dimethoxyphenyl)methoxy]carbonyl}oxy)-3,5-dimethoxyphenyl]carbonyloxy}-6,18-dimethoxy-3,13-diazapentacyclo[11.8.0.0^2,10.0^4,9.0^15,20]henicosa-2(10),4,6,8-tetraene-19-carboxylate], the IC50 in the assay with HL60 tumor cells (setting [1]) was found to be 4000 nM; in the assay with mouse mast cell line 6.5 (setting [2]), 5000 nM.
Regarding `CCOC(=O)Oc1c(OC)cc(C(=O)O[C@@H]2C[C@@H]3CN4CCc5c([nH]c6cc(OC(=O)c7ccccc7)ccc56)[C@H]4C[C@@H]3[C@H](C(=O)OC)[C@H]2OC)cc1OC` [Example 15, methyl (1R,15S,17R,18R,19S,20S)-6-(benzoyloxy)-17-({4-[(ethoxycarbonyl)oxy]-3,5-dimethoxyphenyl}carbonyloxy)-18-methoxy-3,13-diazapentacyclo[11.8.0.0^2,10.0^4,9.0^15,20]henicosa-2(10),4,6,8-tetraene-19-carboxylate], the IC50 with HL60 tumor cells (setting [1]) stood at 2000 nM; in the assay on mouse mast cell line 6.5 (setting [2]), 1500 nM.
For `CCOC(=O)Oc1c(OC)cc(C(=O)O[C@@H]2C[C@@H]3CN4CCc5c([nH]c6cc(OC(=O)CNC(C)=O)ccc56)[C@H]4C[C@@H]3[C@H](C(=O)OC)[C@H]2OC)cc1OC` [Example 17, methyl (1R,15S,17R,18R,19S,20S)-6-[(2-acetamidoacetyl)oxy]-17-({4-[(ethoxycarbonyl)oxy]-3,5-dimethoxyphenyl}carbonyloxy)-18-methoxy-3,13-diazapentacyclo[11.8.0.0^2,10.0^4,9.0^15,20]henicosa-2(10),4,6,8-tetraene-19-carboxylate], the IC50 with HL60 tumor cells (setting [1]) was determined as 1500 nM; with mouse mast cell line 6.5 (setting [2]), 1000 nM.
As to `COC(=O)[C@H]1[C@H]2C[C@@H]3c4[nH]c5cc(OC)ccc5c4CCN3C[C@H]2C[C@@H](OC(=O)c2cc(OC)c(OC(=O)OCc3ccccc3)c(OC)c2)[C@@H]1OC` [Example 21, methyl (1R,15S,17R,18R,19S,20S)-17-[(4-{[(benzyloxy)carbonyl]oxy}-3,5-dimethoxyphenyl)carbonyloxy]-6,18-dimethoxy-3,13-diazapentacyclo[11.8.0.0^2,10.0^4,9.0^15,20]henicosa-2(10),4,6,8-tetraene-19-carboxylate], the IC50 in the assay on HL60 tumor cells (setting [3]) came to 3500 nM; in the assay on mouse mast cell line 6.5 (setting [4]) it was 2000 nM.
Regarding `COC(=O)[C@H]1[C@H]2C[C@@H]3c4[nH]c5cc(OC)ccc5c4CCN3C[C@H]2C[C@@H](OC(=O)c2cc(OC)c(OC(=O)OCc3ccc(Cl)cc3)c(OC)c2)[C@@H]1OC` [Example 9, methyl (1R,15S,17R,18R,19S,20S)-17-{[4-({[(4-chlorophenyl)methoxy]carbonyl}oxy)-3,5-dimethoxyphenyl]carbonyloxy}-6,18-dimethoxy-3,13-diazapentacyclo[11.8.0.0^2,10.0^4,9.0^15,20]henicosa-2(10),4,6,8-tetraene-19-carboxylate], the IC50 in the assay with HL60 tumor cells (setting [1]) and in the assay with mouse mast cell line 6.5 (setting [2]) was 4000 nM throughout.
For the molecule `COC(=O)[C@H]1[C@H]2C[C@@H]3c4[nH]c5cc(OC)ccc5c4CCN3C[C@H]2C[C@@H](OC(=O)c2cc(OC)c(OC(=O)OCc3cc(F)cc(F)c3)c(OC)c2)[C@@H]1OC` [Example 33], the IC50 in the assay on HL60 tumor cells (setting [1]) and in the assay with mouse mast cell line 6.5 (setting [2]) was 2000 nM in each case.
Regarding `CCOC(=O)Oc1c(OC)cc(C(=O)O[C@@H]2C[C@@H]3CN4CCc5c([nH]c6cc(OC(=O)CNC(=O)c7ccccc7)ccc56)[C@H]4C[C@@H]3[C@H](C(=O)OC)[C@H]2OC)cc1OC` [Example 18, methyl (1R,15S,17R,18R,19S,20S)-17-({4-[(ethoxycarbonyl)oxy]-3,5-dimethoxyphenyl}carbonyloxy)-18-methoxy-6-{[2-(phenylformamido)acetyl]oxy}-3,13-diazapentacyclo[11.8.0.0^2,10.0^4,9.0^15,20]henicosa-2(10),4,6,8-tetraene-19-carboxylate], the IC50 amounted to 1500 nM with HL60 tumor cells (setting [1]) and 1000 nM in the assay on mouse mast cell line 6.5 (setting [2]).
Take `COC(=O)[C@H]1[C@H]2C[C@@H]3c4[nH]c5cc(OC)ccc5c4CCN3C[C@H]2C[C@@H](OC(=O)c2cc(OC)c(OC(=O)OCc3cccc(C(F)(F)F)c3)c(OC)c2)[C@@H]1OC` [Example 32]: the IC50 in the assay on HL60 tumor cells (setting [1]) and in the assay on mouse mast cell line 6.5 (setting [2]) was 2000 nM each time.
